Assay results from patent US10155727B2, “Pyrazoles” (Janssen Pharmaceuticals, Inc., priority 2014, dated 2018).
pIC50: −log10 of the molar value. Structures can show the parent of a compound that is named as a salt. Where two headings read alike, the source gives them in different places.

Columns and labels:
rat NR1/NR2B receptor = rat NR1/NR2B receptor (Rattus norvegicus (Rat), UniProt P35439+Q00960); experiment: NR2B binding assay: inhibition of specific [3H]-Ifenprodil binding to the rat NR1/NR2B receptor; conditions: [3H]-Ifenprodil binding, rat brain membranes
Protocol: Biological Assays Inhibition of Specific Binding to the Rat NR1/NR2B Receptor
Male Wistar rats (180 to 200 g) were killed by suffocation in a CO2 chamber for two minutes. Whole brains without cerebellum were removed and dissected on ice, placed into closed vials and stored at −70° C.
Membrane fractions were prepared and tested using standard techniques. At the time of the assay, 1 g of the brains was placed into 25 ml of 50 mM Tris/10 mM EDTA buffer, pH 7.1, (25 vol. per g of original tissue) and homogenized for 30 sec at 20000 rpm with an Ultraturrax T25 (Jahnke & Kunkel, IKA-Labortechnik, Staufen, Germany).
The supernatant was discarded and the pellet was homogenized on ice for 30 sec at 20000 rpm with an Ultraturrax and again centrifuged at 48000 g for 30 minutes at 4° C. The resultant pellet was resuspended in 25 ml of 50 mM Tris/10 mM EDTA buffer, homogenized for 30 sec with an Ultraturrax, aliquoted, frozen at −70° C. and stored until use.
After thawing on the day of the assay, a 5 ml membrane aliquot was centrifuged at 48000 g for 30 min at 4° C. The pellet was resuspended in 5 ml of 5 mM Tris/1 mM EDTA buffer, pH 7.4, homogenized for 30 sec at 20000 rpm with an Ultraturrax and centrifuged at 48000 g for 30 min at 4° C. This was repeated twice. The final pellet was homogenized in 5 ml of 5 mM Tris/1 mM EDTA buffer at 4° C. with an Ultraturrax and used for the Ifenprodil-binding assay as described in the following.
Nonspecific binding was estimated in the presence of […] CP101.606. The samples were incubated for 60 min. at 4° C.
The incubation was terminated by filtration of the membrane preparations using Filtermat B (Pharmacia, Uppsala Sweden) and a Micro Cell Harvester (Skatron, Lier, Norway). The Filtermat B had been presoaked with 1% polyethylene imine and carefully washed with 50 mM Tris/HCl-buffer pH 7.7 after the filtration to separate free and bound radioactivity.
The optimal amount of membrane preparation in the assay was determined and optimized for each membrane preparation separately before the test.
For pipetting of the incubation mixture the robot Biomek2000 (Fa. Beckman) was used.
For determination of IC50 values the Hill-plot, 2-parameter-model was used.

[1] = biological target: human NR1/NR2B ion channels (Homo sapiens (Human), UniProt Q05586+Q13224); experiment: HNR2BC: calcium influx assay on cloned human NR1/NR2B ion channels expressed in HEK cells; assay type: cell-based; conditions: HEK cells with hNR1/NR2B, 100 μM glutamate + 100 μM glycine, 3 parameter plot
Protocol: HNR2BC: Effects of Test Articles on Cloned Human NR1/NR2B Ion Channels Expressed in Mammalian Cells
The ability of test compounds to act as an antagonist of NR1/NR2B was evaluated with a calcium influx assay (Calcium 5 Assay Kit, Molecular Devices).
For the antagonist assessment, NR1/NR2B was activated with the positive control agonist (Mg^2+-free HBPS+100 μM glutamic acid+100 μM glycine).
A HEK cell line, stable transfected with hNR1/NR2B was used. This tetracycline inducible cell line is transfected with GRIN1 (GeneBank accession number NM_007327.2) and GRIN2B (GeneBank accession number NM_000834.3.). The cells were cultured in cell culture flasks with DMEM/F12 supplemented with 10% FCS, 1% PenStrep and a selection of additional antibiotics.
Forty-Eight (48) hours before the assay the cells were plated into 96-well black well, flat clear bottom microtiter plates at a density of 50000 cells/well. Twenty-Four (24) hours later the receptor expression was induced by the addition of 1 μg/ml tetracycline in the presence of 2 mM ketamine and 200 μM 7-CKA. After 24 h of receptor induction the plates were used for the assay.
The medium was removed and the cells were loaded with 200 μl loading buffer (Molecular Devices) in Mg2+-free HBPS containing 100 μM 7-CKA at 37° C. for one (1) hour.
The test compounds were then solubilized in 100% DMSO and diluted to yield eight (8) different concentrations in 100% DMSO. A 96 well drug plate was prepared by diluting with water and glycine/glutamate to a 5-fold of final test concentration. Fluorescence intensity of the cells in the plate was measured in a FlexStation using an excitation wavelength of 485 nm and an emission wavelength of 525 nm. Twenty (20) seconds after starting the recordings the compounds together with the agonists glycine (100 μM) and glutamate (100 μM) were added into the wells and the fluorescence measured for ninety (90) seconds in summary.
The IC50 values provided in the paragraph below were determined using a 3 parameter plot.

hERG receptor = hERG receptor (Homo sapiens (Human), UniProt Q12809); experiment: HERGBD: inhibition of specific [3H]-Dofetilide binding to the hERG receptor
Protocol: Inhibition of Specific Binding to the hERG—Receptor (HERGBD)
A HEK cell line with stable transfected human ERG receptor was used for the assay. The cells were grown adherently and maintained in DULBECCOS' MEM medium with 10% FBS, 1% non-essential amino acids, 1% Penicillin/Streptomycin and 400 μg/ml G418 (Calbiochem).
For binding assays and membrane preparations the cell culture medium was removed, cells were washed with PBS. Crude membranes for radioligand binding experiments were prepared by scraping the cells off the dishes in ice cold 20 mM HEPES/0.1 mM KCl/pH 7.2. The cell suspension was homogenized on ice (Ultra turrax, 3×20 sec.) and the homogenate was spun for 10 min (1° C., 1000 g, OPTIMA, SW28, 2800 U/min). The supernatant was than centrifuged for 40 min at 100000 g (1° C., OPTIMA, SW28, 23000 U/min). The membrane pellet was re-suspended in 20 mM HEPES/0.1 mM KCl pH 7.2, frozen and stored at −80° C.
After thawing on the day of the assay, the membrane suspension was diluted further with 20 mM HEPES/0.1 mM KCl/pH 7.2.
The incubation mixture of 200 μl contained 1.5 nmol/l 3H-Dofetilide, optimized amount of membrane preparation, 20 mM HEPES/0.1 mM KCl/(pH 7.2) and inhibitor in 1% DMSO. Nonspecific binding was estimated in the presence of […] Dofetilide. The samples were incubated for 90 min. at RT.
Binding was terminated by filtration of the incubated membrane preparations using Filtermat B (Pharmacia, Uppsala Sweden) and a Micro Cell Harvester (Skatron, Lier, Norway). The Filtermat B had been presoaked with 1% polyethylen imine and carefully washed with 0.05 M Tris/HCl-buffer pH=7.7 after the filtration to separate free and bound radioactivity. The filters were counted in a scintillation counter (Betaplate 1205, Berthold, Wildbad, Germany) in order to determine the specific binding of [^3H]-Dofetilide.
The optimal amount of membrane preparation in the assay was determined and optimized for each membrane preparation separately in front of using the membranes in compound testing.
For pipetting of the incubation mixture we routinely use the robot Biomek2000 (Fa. Beckman).

[2] = [3H]-Dofetilide binding, membranes of HEK cells with human ERG receptor, read-out: IC50

Sequence of human NR1/NR2B ion channels (Q13224 27-1484, other chains not shown): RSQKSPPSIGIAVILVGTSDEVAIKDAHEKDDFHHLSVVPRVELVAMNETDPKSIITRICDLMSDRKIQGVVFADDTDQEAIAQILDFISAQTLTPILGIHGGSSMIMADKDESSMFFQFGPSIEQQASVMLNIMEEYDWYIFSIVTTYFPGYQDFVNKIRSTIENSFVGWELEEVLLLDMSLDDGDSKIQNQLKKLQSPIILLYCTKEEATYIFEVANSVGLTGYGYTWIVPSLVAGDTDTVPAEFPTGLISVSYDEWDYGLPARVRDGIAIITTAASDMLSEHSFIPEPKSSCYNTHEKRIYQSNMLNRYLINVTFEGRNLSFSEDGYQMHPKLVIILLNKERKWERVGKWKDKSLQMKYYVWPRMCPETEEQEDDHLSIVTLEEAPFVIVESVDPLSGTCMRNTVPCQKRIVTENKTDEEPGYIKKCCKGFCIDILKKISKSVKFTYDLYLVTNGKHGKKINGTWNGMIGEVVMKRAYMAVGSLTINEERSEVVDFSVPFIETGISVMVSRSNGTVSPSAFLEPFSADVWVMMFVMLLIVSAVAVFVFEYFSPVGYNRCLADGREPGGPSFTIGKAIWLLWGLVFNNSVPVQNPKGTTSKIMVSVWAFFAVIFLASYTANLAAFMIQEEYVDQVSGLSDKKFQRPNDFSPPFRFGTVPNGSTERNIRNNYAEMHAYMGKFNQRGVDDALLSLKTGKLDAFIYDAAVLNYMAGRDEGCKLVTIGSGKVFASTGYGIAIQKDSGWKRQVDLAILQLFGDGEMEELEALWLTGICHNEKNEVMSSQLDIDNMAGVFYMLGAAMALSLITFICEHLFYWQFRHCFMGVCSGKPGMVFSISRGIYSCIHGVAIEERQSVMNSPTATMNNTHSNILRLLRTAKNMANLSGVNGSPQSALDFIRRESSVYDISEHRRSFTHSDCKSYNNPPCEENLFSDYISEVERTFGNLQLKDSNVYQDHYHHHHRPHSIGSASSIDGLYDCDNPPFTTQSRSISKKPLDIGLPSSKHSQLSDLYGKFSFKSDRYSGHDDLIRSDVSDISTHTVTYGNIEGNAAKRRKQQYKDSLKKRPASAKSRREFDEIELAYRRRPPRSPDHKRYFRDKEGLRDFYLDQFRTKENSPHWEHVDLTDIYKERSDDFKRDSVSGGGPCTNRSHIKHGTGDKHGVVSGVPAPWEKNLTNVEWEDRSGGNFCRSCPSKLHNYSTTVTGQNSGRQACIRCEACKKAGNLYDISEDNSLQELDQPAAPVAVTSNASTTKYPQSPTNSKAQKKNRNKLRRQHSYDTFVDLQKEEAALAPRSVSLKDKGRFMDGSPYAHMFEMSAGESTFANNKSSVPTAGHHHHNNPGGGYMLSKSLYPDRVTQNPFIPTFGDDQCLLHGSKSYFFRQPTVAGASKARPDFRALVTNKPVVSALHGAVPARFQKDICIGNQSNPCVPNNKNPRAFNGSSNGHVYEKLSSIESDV
Sequence of hERG receptor (Q12809 whole entry): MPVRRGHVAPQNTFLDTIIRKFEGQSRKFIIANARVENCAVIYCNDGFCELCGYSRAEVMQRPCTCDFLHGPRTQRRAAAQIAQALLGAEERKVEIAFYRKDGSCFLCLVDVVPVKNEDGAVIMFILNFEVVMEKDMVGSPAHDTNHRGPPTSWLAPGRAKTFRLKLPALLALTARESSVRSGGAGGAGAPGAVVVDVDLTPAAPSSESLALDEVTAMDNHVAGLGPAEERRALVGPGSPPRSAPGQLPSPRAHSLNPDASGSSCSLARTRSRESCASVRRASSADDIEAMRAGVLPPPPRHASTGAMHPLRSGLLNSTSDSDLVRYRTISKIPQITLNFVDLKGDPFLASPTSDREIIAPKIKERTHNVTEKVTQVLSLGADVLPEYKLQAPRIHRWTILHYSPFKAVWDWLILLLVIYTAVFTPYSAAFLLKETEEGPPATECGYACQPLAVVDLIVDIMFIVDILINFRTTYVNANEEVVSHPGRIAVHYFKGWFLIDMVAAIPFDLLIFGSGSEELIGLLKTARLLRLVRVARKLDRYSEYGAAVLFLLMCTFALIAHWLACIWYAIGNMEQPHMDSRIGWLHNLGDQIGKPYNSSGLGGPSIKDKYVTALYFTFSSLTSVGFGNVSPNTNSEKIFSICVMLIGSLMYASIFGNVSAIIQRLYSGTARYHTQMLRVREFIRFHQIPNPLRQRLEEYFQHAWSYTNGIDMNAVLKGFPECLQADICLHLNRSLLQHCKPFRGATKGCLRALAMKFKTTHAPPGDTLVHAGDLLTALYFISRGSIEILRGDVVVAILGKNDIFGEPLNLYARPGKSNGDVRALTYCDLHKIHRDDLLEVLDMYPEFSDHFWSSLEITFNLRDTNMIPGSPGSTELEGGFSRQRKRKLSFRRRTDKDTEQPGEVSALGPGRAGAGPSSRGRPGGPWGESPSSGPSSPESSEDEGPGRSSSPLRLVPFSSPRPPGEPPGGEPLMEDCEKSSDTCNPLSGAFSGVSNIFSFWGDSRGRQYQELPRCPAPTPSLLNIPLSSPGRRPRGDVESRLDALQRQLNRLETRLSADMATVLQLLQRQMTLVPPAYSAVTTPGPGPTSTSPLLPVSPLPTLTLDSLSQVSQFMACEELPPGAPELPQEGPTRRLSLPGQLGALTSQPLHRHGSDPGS
Sequence of rat NR1/NR2B receptor (Q00960 27-1482, other chains not shown): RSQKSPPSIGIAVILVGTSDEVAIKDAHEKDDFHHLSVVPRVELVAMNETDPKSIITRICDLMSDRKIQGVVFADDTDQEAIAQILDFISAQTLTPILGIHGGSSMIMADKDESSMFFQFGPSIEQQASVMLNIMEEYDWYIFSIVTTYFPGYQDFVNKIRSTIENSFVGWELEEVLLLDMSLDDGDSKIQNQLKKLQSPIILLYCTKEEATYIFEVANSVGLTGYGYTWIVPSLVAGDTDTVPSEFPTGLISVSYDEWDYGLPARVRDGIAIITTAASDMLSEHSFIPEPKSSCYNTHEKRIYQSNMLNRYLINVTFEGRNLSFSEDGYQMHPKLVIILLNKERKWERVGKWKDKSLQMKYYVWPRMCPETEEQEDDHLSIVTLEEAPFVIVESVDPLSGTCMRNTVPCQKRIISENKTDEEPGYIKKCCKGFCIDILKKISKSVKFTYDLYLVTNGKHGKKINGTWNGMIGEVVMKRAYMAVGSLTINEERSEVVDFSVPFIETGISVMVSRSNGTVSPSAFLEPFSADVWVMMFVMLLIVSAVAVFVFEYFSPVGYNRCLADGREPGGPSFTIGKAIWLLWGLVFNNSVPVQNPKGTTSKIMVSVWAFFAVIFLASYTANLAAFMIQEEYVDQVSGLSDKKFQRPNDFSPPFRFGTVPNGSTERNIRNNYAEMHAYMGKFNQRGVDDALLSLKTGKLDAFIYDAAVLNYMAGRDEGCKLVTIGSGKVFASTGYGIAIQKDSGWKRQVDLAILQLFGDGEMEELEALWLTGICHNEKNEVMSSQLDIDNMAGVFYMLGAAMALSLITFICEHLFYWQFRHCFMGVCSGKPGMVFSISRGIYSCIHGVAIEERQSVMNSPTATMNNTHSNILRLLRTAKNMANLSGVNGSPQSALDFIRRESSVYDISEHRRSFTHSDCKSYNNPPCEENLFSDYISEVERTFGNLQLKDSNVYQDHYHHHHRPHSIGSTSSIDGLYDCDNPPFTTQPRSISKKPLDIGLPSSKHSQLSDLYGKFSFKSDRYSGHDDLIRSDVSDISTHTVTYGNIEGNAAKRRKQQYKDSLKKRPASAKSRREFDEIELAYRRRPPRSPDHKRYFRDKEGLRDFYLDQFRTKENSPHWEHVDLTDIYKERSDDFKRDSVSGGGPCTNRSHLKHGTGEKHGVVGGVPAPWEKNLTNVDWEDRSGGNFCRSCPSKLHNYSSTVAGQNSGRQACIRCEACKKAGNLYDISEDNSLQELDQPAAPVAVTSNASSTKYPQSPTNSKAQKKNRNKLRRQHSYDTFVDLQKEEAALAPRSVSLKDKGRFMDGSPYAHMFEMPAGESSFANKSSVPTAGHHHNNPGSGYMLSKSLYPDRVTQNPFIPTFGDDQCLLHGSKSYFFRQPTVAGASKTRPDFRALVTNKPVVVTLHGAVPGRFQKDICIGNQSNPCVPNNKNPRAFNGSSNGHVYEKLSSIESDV

Structure (SMILES) | pIC50 (rat NR1/NR2B receptor) | pIC50 [1] | pIC50 (hERG receptor) | pIC50 (hERG receptor; [2]) | inhibition at 1 µM (rat NR1/NR2B receptor; 1 μM test compound, read-out: % INH @ 1 μM) [%] | inhibition at 10 µM (rat NR1/NR2B receptor; 10 μM test compound, read-out: % INH @ 10 μM) [%]
CC(F)(F)c1cc(-c2cnn(Cc3cc[nH]n3)c2)ccc1F [Example 44, 4-[3-(1,1-difluoroethyl)-4-fluoro-phenyl]-1-(1H-pyrazol-3-ylmethyl)pyrazole Succinate] | 7.77 | 6.28 | < 4.00 | – | – | –
Fc1ccc(-c2cnn(Cc3cc[nH]n3)c2)cc1C(F)F [Example 35, 4-[3-(Difluoromethyl)-4-fluoro-phenyl]-1-(1H-pyrazol-3-ylmethyl)pyrazole] | 7.75 | 6.16 | 4.65 | – | – | –
FC(F)c1cc(-c2cnn(Cc3cc[nH]n3)c2)ccc1Cl [Example 26, 4-[4-Chloro-3-(difluoromethyl)phenyl]-1-(1H-pyrazol-3-ylmethyl)pyrazole] | – | 6.05 | – | – | – | –
Cn1cc(Cn2cc(-c3ccc(Cl)c(OC(F)F)c3)cn2)cn1 [Example 4, 4-[4-Chloro-3-(difluoromethoxy)phenyl]-1-[(1-methylpyrazol-4-yl)methyl]pyrazole] | – | 5.76 | – | – | – | –
CCCc1cc(Cn2cc(-c3ccc(F)c(C(F)F)c3)cn2)n[nH]1 [Example 41, 3-[[4-[3-(Difluoromethyl)-4-fluoro-phenyl]pyrazol-1-yl]methyl]-5-propyl-1H-pyrazole] | 6.94 | 4.22 | 4.80 | – | – | –
CCc1c[nH]nc1Cn1cc(-c2ccc(F)c(C(F)F)c2)cn1 [Example 92, 3-[[4-[3-(difluoromethyl)-4-fluoro-phenyl]pyrazol-1-yl]methyl]-4-ethyl-1H-pyrazole] | 7.15 | 4.92 | – | 4.56 | – | –
Cc1[nH]ncc1Cn1cc(-c2ccc(Cl)c(OC(F)F)c2)cn1 [Example 16, 4-[4-Chloro-3-(difluoromethoxy)phenyl]-1-[(5-methyl-1H-pyrazol-4-yl)methyl]pyrazole] | 7.39 | 5.67 | 4.19 | – | – | –
Cc1n[nH]c(C)c1Cn1cc(-c2ccc(Cl)c(OC(F)F)c2)cn1 [Example 88, 4-[[4-(3-difluoromethoxy-4-chloro-phenyl)pyrazol-1-yl]methyl]-3,5-dimethyl-1H-pyrazole] | 6.82 | < 5.00 | 4.36 | – | – | –
FC(F)Oc1cc(-c2cnn(Cc3cc[nH]n3)c2)ccc1Cl [Example 6] | – | 6.64 | – | – | – | –
CCc1[nH]ncc1Cn1cc(-c2ccc(F)c(OC(F)F)c2)cn1 [Example 20, 4-[3-(difluoromethoxy)-4-fluoro-phenyl]-1-[(5-ethyl-1H-pyrazol-4-yl)methyl]pyrazole Tartrate] | – | 5.22 | – | – | – | –
CCc1[nH]ncc1Cn1cc(-c2ccc(Cl)c(OC(F)F)c2)cn1 [Example 17, 4-[4-Chloro-3-(difluoromethoxy)phenyl]-1-[(5-ethyl-1H-pyrazol-4-yl)methyl]pyrazole] | – | 5.43 | – | – | – | –
COc1cc(F)ccc1-c1cnn(Cc2ccn(C)n2)c1 [Example 67, 3-[[4-(4-fluoro-2-methoxy-phenyl)pyrazol-1-yl]methyl]-1-methyl-pyrazole Succinate] | – | – | – | 4.20 | 15.1 | 16
Cn1cc(Cn2cc(-c3ccc(Cl)cc3)cn2)cn1 [Example 78, 4-(4-Chlorophenyl)-1-[(1-methylpyrazol-4-yl)methyl]pyrazole] | 5.08 | – | < 4.00 | – | – | –
Cc1cc(Cn2cc(-c3ccc(F)c(C(F)F)c3)cn2)n(C)n1 [Example 32, 5-[[4-[3-(Difluoromethyl)-4-fluoro-phenyl]pyrazol-1-yl]methyl]-1,3-dimethyl-pyrazole] | 6.49 | – | 4.41 | – | – | –
CS(=O)(=O)c1cccc(-c2cnn(Cc3cc[nH]n3)c2)c1 [Example 70, 4-(3-methylsulfonylphenyl)-1-(1H-pyrazol-3-ylmethyl)pyrazole Succinate] | 5.57 | – | < 4.00 | – | – | –
FS(F)(F)(F)(F)c1cccc(-c2cnn(Cc3cc[nH]n3)c2)c1 [Example 72, 1-((1H-pyrazol-3-yl)methyl)-4-(3-(pentafluoro-16-sulfanyl)phenyl)-1H-pyrazole Succinate] | 7.02 | – | 4.35 | – | – | –
